Patent US20230286958A1, “PLASMA KALLIKREIN INHIBITORS” (Merck Sharp & Dohme LLC, priority 2020, published 2023)

Assays:
Human plasma kallikrein = Human plasma kallikrein (Homo sapiens (Human), UniProt P03952); experiment: Kallikrein Assay (fluorogenic substrate Acetyl-K-P-R-AFC); format: biochemical; conditions: Plasma Kallikrein (PKal)
Procedure, shortened: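 Ki is derived from IC50 with the Cheng-Prusoff equation, and IC50 from the inflection point of a four-parameter logistic curve. The rate of AFC release is read with 0.5 nM purified enzyme and […] substrate at room temperature or 37 °C.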

human Factor XIa = human Factor XIa (Homo sapiens (Human), UniProt P03951); experiment: Factor XIa Assay (fluorogenic substrate GPR-AFC); format: biochemical; conditions: Factor XIa (FXIa)
Sequence of human Factor XIa (P03951 388-625 limits assumed): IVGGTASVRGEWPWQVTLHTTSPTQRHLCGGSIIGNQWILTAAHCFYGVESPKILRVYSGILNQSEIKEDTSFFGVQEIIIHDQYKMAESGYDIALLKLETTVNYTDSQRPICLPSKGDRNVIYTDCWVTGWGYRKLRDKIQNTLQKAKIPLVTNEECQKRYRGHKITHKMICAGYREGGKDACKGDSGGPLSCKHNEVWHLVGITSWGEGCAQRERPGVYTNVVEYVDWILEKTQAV
Sequence of human Factor XIa (P03951 19-387 partner limits assumed): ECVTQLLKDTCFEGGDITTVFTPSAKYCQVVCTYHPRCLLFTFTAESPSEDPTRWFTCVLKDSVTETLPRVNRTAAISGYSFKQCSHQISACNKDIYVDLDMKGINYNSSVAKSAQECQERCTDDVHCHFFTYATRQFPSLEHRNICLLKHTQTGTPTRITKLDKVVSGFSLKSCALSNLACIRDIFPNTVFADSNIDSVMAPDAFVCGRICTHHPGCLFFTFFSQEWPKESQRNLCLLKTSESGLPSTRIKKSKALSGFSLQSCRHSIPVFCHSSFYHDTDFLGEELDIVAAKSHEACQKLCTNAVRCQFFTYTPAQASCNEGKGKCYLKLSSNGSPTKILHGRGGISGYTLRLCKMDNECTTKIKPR

Sequence of Human plasma kallikrein (P03952 391-638): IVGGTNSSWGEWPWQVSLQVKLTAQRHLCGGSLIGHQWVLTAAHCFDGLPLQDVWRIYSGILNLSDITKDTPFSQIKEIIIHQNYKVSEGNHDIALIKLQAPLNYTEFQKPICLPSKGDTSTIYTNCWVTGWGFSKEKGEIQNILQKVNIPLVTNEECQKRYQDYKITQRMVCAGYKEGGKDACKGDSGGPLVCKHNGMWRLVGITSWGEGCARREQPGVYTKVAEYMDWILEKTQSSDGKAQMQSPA
Sequence of Human plasma kallikrein (P03952 20-390 partner): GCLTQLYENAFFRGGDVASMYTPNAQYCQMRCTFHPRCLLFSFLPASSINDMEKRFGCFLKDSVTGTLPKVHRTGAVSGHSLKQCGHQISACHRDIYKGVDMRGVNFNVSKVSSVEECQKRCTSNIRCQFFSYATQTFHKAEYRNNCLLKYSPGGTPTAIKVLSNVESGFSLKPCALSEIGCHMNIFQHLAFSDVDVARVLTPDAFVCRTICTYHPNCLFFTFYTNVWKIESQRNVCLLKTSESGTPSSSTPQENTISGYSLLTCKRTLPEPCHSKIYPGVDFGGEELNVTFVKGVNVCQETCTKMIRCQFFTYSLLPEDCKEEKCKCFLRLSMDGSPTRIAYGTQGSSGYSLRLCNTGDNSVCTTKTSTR

Compound	IC50 (Human plasma kallikrein)	IC50 (human Factor XIa)
Cc1nc([C@@H](C)n2cc(NC(=O)c3nc(-c4c(C(F)F)ccc(Cl)c4F)cnc3C)cn2)ncc1N1C[C@H]2C[C@H]2C1=O [Example 2, 6-(3-Chloro-6-(difluoromethyl)-2-fluorophenyl)-3-methyl-N-(1-((R)-1-(4-methyl-5-((1R,5S)-2-oxo-3-azabicyclo[3.1.0]hexan-3-yl)pyrimidin-2-yl)ethyl)-1H-pyrazol-4-yl)pyrazine-2-carboxamide]	11.9 nM	> 10000 nM
CC(c1cnc(N2C[C@H]3C[C@H]3C2=O)c2c1OC(F)(F)O2)n1cc(NC(=O)c2cncc(-c3c(C(F)F)ccc(Cl)c3F)n2)cn1 (single isomer, unassigned) [Example 249, 6-(3-Chloro-6-(difluoromethyl)-2-fluorophenyl)-N-(1-((S or R)-1-(2,2-difluoro-4-((1R,5S)-2-oxo-3-azabicyclo[3.1.0]hexan-3-yl)-[1,3]dioxolo[4,5-c]pyridin-7-yl)ethyl)-1H-pyrazol-4-yl)pyrazine-2-carboxamide]	2.1 nM	> 10000 nM
CC(c1cnc(N2Cc3cccnc3C2=O)nc1)n1cc(NC(=O)c2cncc(-c3c(C(F)F)ccc(Cl)c3F)n2)cn1 (racemic) [Example 26, (S and R)-6-(3-Chloro-6-(difluoromethyl)-2-fluorophenyl)-N-(1-(1-(2-(7-oxo-5,7-dihydro-6H-pyrrolo[3,4-b]pyridin-6-yl)pyrimidin-5-yl)ethyl)-1H-pyrazol-4-yl)pyrazine-2-carboxamide]	6.2 nM	> 10000 nM
Cc1c(C(CO)n2cc(NC(=O)c3cncc(-c4c(C(F)F)ccc(Cl)c4F)n3)cn2)cnc(N2C[C@H]3C[C@H]3C2=O)c1C (single isomer, unassigned) [Example 168, 6-(3-Chloro-6-(difluoromethyl)-2-fluorophenyl)-N-(1-((S or R)-1-(4,5-dimethyl-6-((1R,5S)-2-oxo-3-azabicyclo[3.1.0]hexan-3-yl)pyridin-3-yl)-2-hydroxyethyl)-1H-pyrazol-4-yl)pyrazine-2-carboxamide]	0.4 nM	261 nM
Cc1ncc(-c2c(C(F)F)ccc(Cl)c2F)nc1C(=O)Nc1cnn(C(C)c2cnc(N3C[C@H]4C[C@H]4C3=O)nc2)c1 (single isomer, unassigned) [Example 29, 6-(3-Chloro-6-(difluoromethyl)-2-fluorophenyl)-3-methyl-N-(1-((S or R)-1-(2-((1R,5S)-2-oxo-3-azabicyclo[3.1.0]hexan-3-yl)pyrimidin-5-yl)ethyl)-1H-pyrazol-4-yl)pyrazine-2-carboxamide]	9.6 nM	2040 nM
CC(c1ncc(N2C[C@H]3C[C@H]3C2=O)cc1F)n1cc(NC(=O)c2cncc(-c3c(C(F)F)ccc(Cl)c3F)n2)cn1 (single isomer, unassigned) [Example 146, 6-(3-Chloro-6-(difluoromethyl)-2-fluorophenyl)-N-(1-((R or S)-1-(3-fluoro-5-((1R,5S)-2-oxo-3-azabicyclo[3.1.0]hexan-3-yl)pyridin-2-yl)ethyl)-1H-pyrazol-4-yl)pyrazine-2-carboxamide]	9.8 nM	> 10000 nM

Next, values leading:

IC50 (Human plasma kallikrein)	IC50 (human Factor XIa)	Compound
4.8 nM	1200 nM	Cc1ccc(Cl)c(F)c1-c1cnc(C)c(C(=O)Nc2cnn(Cc3nnc(N4C[C@H]5C[C@H]5C4=O)c(C)c3C)c2)n1 [Example 112, 6-(3 -Chloro-2-fluoro-6-methylphenyl)-N-(1-((4,5-dimethyl-6-((1R,5S)-2-oxo-3-azabicyclo[3.1.0]hexan-3-yl)pyridazin-3-yl)methyl)-1H-pyrazol-4-yl)-3-methylpyrazine-2-carboxamide]
0.7 nM	127 nM	Cc1ncc(-c2c(C(F)F)ccc(Cl)c2F)nc1C(=O)Nc1cnn(Cc2nnc(N3C[C@H]4C[C@H]4C3=O)c(C)c2C)c1 [Example 88, 6-(3-Chloro-6-(difluoromethyl)-2-fluorophenyl)-N-(1-((4,5-dimethyl-6-((1R,5S)-2-oxo-3-azabicyclo[3.1.0]hexan-3-yl)pyridazin-3-yl)methyl)-1H-pyrazol-4-yl)-3-methylpyrazine-2-carboxamide]
3.4 nM	259 nM	Cc1cc(Cn2cc(NC(=O)c3nc(-c4c(C(F)F)ccc(Cl)c4F)cnc3C)cn2)nnc1N1C[C@H]2C[C@H]2C1=O [Example 83, 6-(3-Chloro-6-(difluoromethyl)-2-fluorophenyl)-3-methyl-N-(1-((5-methyl-6-((1R,5S)-2-oxo-3-azabicyclo[3.1.0]hexan-3-yl)pyridazin-3-yl)methyl)-1H-pyrazol-4-yl)pyrazine-2-carboxamide]
